Assay results taken from BindingDB's records for doi:10.7270/Q2M32T6M (Vanderbilt Screening Center for GPCRs, Ion Channels and …, 2009).
pEC50: −log10 of the molar value.

Target: T1, Solute carrier family 12 member 5 (Homo sapiens, UniProt Q9H2X9)
T1 sequence (Q9H2X9 whole entry): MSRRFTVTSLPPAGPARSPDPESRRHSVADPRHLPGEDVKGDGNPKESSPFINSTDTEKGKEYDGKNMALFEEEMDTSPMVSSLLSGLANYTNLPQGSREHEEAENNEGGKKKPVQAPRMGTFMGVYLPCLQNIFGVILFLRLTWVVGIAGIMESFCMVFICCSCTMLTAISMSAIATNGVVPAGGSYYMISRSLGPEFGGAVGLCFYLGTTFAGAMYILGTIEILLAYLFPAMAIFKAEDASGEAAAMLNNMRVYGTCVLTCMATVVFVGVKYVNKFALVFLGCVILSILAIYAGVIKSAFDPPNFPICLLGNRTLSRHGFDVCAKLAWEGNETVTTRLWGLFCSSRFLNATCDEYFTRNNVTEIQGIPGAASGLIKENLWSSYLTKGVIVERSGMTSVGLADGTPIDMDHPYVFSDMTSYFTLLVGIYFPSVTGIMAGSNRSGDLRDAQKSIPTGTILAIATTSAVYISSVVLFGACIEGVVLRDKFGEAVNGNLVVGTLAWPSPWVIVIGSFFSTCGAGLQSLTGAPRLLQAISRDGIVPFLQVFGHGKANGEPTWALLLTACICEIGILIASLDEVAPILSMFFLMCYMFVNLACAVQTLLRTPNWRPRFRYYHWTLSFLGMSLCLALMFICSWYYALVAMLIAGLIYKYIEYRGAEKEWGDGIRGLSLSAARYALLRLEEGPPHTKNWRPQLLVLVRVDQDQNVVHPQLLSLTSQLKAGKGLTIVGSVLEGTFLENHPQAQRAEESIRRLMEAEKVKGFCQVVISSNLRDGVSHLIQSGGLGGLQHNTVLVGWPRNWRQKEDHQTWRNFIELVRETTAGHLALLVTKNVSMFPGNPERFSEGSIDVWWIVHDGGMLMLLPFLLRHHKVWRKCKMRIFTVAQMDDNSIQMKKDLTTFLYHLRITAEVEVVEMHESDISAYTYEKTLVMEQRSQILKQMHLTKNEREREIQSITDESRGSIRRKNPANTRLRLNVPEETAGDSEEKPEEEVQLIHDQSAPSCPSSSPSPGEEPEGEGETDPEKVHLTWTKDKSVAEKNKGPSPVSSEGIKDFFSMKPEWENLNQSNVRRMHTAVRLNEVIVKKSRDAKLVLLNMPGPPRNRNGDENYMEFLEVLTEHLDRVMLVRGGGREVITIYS
Assay: concentration-response of KCC2 transport modulators – cell-based, HEK293 KCC2, FluoZin-2 fluorescence, dose response (AID 1736)
Conditions: not given

SMILES	pEC50
Cc1nn(-c2ccc(F)cc2)c(C)c1NS(=O)(=O)c1ccc(Cl)cc1 [4-chloranyl-N-[1-(4-fluorophenyl)-3,5-dimethyl-pyrazol-4-yl]benzenesulfonamide]	2.48
O=S(=O)(Nc1nc2ccccc2nc1N1CCN(c2ccccn2)CC1)c1ccc(Cl)cc1 [4-chloranyl-N-[3-(4-pyridin-2-ylpiperazin-1-yl)quinoxalin-2-yl]benzenesulfonamide]	4.83
COc1ccc(S(=O)(=O)N(C)CC(=O)N2CCN(Cc3ccccc3)CC2)cc1C [4-methoxy-N,3-dimethyl-N-[2-oxidanylidene-2-[4-(phenylmethyl)piperazin-1-yl]ethyl]benzenesulfonamide]	5.65
Cc1ccc(CSCCNC(=O)c2ccc(C)cc2)cc1 [4-methyl-N-[2-[(4-methylbenzyl)thio]ethyl]benzamide]	4.81
Sc1nnc(Cc2cccc3ccccc23)o1 [5-(1-naphthalenylmethyl)-3H-1,3,4-oxadiazole-2-thione]	6.55
Sc1nnc(C2(c3ccccc3)CCCC2)o1 [5-(1-phenylcyclopentyl)-3H-1,3,4-oxadiazole-2-thione]	5.88
Sc1nnc(Cc2c[nH]c3ccccc23)o1 [5-(1H-indol-3-ylmethyl)-1,3,4-oxadiazole-2(3H)-thione]	5.35
N#Cc1nc(Cc2cccc3ccccc23)oc1NCCN1CCOCC1 [5-(2-Morpholin-4-yl-ethylamino)-2-naphthalen-1-ylmethyl-oxazole-4-carbonitrile]	5.03
COc1cccc(Nc2nnc(S)s2)c1 [5-(3-methoxyanilino)-3H-1,3,4-thiadiazole-2-thione]	5.46
Sc1nnc(COc2ccc(Cl)cc2)o1 [5-(4-Chloro-phenoxymethyl)-3H-[1,3,4]oxadiazole-2-thione]	5.51
N#Cc1nc(-c2cccs2)oc1N1CCN(Cc2ccccc2)CC1 [5-(4-benzyl-1-piperazinyl)-2-(2-thienyl)-1,3-oxazole-4-carbonitrile]	5.38
N#Cc1nc(Cc2cccc3ccccc23)oc1N1CCOCC1 [5-(4-morpholinyl)-2-(1-naphthalenylmethyl)-4-oxazolecarbonitrile]	5.66
O=C(NCC1CCCO1)C(c1cccs1)N(C(=O)c1ccc(-c2ccccc2)[nH]1)C1CCCC1 (configuration not stated) [5-Phenyl-1H-pyrrole-2-carboxylic acid cyclopentyl-{[(tetrahydro-furan-2-ylmethyl)-carbamoyl]-thiophen-2-yl-methyl}-amide]	5.11
Cc1cccc(OCCc2nnc(N)s2)c1C [5-[2-(2,3-Dimethyl-phenoxy)-ethyl]-[1,3,4]thiadiazol-2-ylamine]	5.21
Sc1nnc(CCc2ccc(Cl)cc2)o1 [5-[2-(4-chlorophenyl)ethyl]-1,3,4-oxadiazole-2-thiol]	5.80
O=C(Nc1cccnc1)c1ccc(COc2cc(Cl)ccc2Cl)o1 [5-[(2,5-dichlorophenoxy)methyl]-N-(3-pyridinyl)-2-furancarboxamide]	5.41
O=C(NCc1ccc2c(c1)OCO2)c1ccc(COc2cc(Cl)ccc2Cl)o1 [5-[(2,5-dichlorophenoxy)methyl]-N-piperonyl-2-furamide]	5.15
O=C(NCc1cccnc1)c1ccc(COc2ccccc2Br)o1 [5-[(2-bromanylphenoxy)methyl]-N-(pyridin-3-ylmethyl)furan-2-carboxamide]	4.86
O=C(Nc1cccnc1)c1ccc(COc2ccccc2Br)o1 [5-[(2-bromanylphenoxy)methyl]-N-pyridin-3-yl-furan-2-carboxamide]	5.63

SMILES	pEC50
Sc1nnc(CNc2cccc(Cl)c2)o1 [5-[(3-chloroanilino)methyl]-3H-1,3,4-oxadiazole-2-thione]	5.42
Sc1nnc(Nc2ccccc2)s1 [5-anilino-3H-1,3,4-thiadiazole-2-thione]	3.20
CCCn1c(N)c(C(=O)CSc2nnc(Cc3ccccc3)o2)c(=O)n(C)c1=O [6-amino-3-methyl-5-[1-oxo-2-[[5-(phenylmethyl)-1,3,4-oxadiazol-2-yl]thio]ethyl]-1-propylpyrimidine-2,4-dione]	8.33
CCc1ccc(Nc2nnc(SCc3cc(=O)n4ccsc4n3)s2)cc1 [7-[[5-(4-ethylanilino)-1,3,4-thiadiazol-2-yl]sulfanylmethyl]-[1,3]thiazolo[3,2-a]pyrimidin-5-one]	6.95
O=c1c(-c2cnn(-c3ccccc3)c2)coc2cc(O)ccc12 [7-hydroxy-3-(1-phenyl-1H-pyrazol-4-yl)-4H-chromen-4-one]	5.05
Cc1ccc2[nH]c3c(N4CCN(Cc5ccccc5)CC4)ncnc3c2c1 [8-methyl-4-[4-(phenylmethyl)-1-piperazinyl]-5H-pyrimido[5,4-b]indole]	5.49
O=C(C1CCN(c2nc3ccc(Br)cc3s2)CC1)N1CCC2(CC1)OCCO2 [8-{[1-(6-bromo-1,3-benzothiazol-2-yl)piperidin-4-yl]carbonyl}-1,4-dioxa-8-azaspiro[4.5]decane]	5.28
O=C(C1CCCN(S(=O)(=O)c2cccc3nonc23)C1)N1CCC(Cc2ccccc2)CC1 (configuration not stated) [(1-benzofurazan-4-ylsulfonyl-3-piperidyl)-(4-benzylpiperidino)methanone]	2.84
COc1ccc(NC(=S)NC(N)=Nc2nc(C)c3ccccc3n2)cc1 [(1E)-1-[amino-[(4-methyl-2-quinazolinyl)amino]methylidene]-3-(4-methoxyphenyl)thiourea]	5.55
COc1cc(C(=S)N2CCOCC2)cc(OC)c1OC(=O)Cc1ccc(F)cc1 [(2,6-dimethoxy-4-morpholin-4-ylcarbothioyl-phenyl) 2-(4-fluorophenyl)ethanoate]	5.49
COc1cc(C(=S)N2CCOCC2)cc(OC)c1OC(=O)Cc1ccccc1 [(2,6-dimethoxy-4-morpholin-4-ylcarbothioyl-phenyl) 2-phenylethanoate]	6.39
c1ccc(-c2csc(N=NCc3ccco3)n2)cc1 [(2-furfurylideneamino)-(4-phenylthiazol-2-yl)amine]	5.59
COc1cc(C(=S)N2CCOCC2)ccc1OC(=O)Cc1ccc(F)cc1 [(2-methoxy-4-morpholin-4-ylcarbothioyl-phenyl) 2-(4-fluorophenyl)ethanoate]	5.06
CC1Cc2ccccc2N1C(=O)c1ccc(N2CCCCC2)c([N+](=O)[O-])c1 (configuration not stated) [(2-methyl-2,3-dihydroindol-1-yl)-(3-nitro-4-piperidin-1-yl-phenyl)methanone]	6.20
CC1Cc2ccccc2N1C(=O)c1ccc(N2CCCC2)c([N+](=O)[O-])c1 (configuration not stated) [(2-methyl-2,3-dihydroindol-1-yl)-(3-nitro-4-pyrrolidin-1-yl-phenyl)methanone]	6.19
COC(=O)[C@@H](NC(=O)O[C@@H]1C(=O)c2ccc(OC)cc2O[C@H]1c1cccc(C(F)(F)F)c1)C(C)C [(2S)-2-[[(2S,3S)-4-keto-7-methoxy-2-[3-(trifluoromethyl)phenyl]chroman-3-yl]oxycarbonylamino]-3-methyl-butyric acid methyl ester]	5.73
N#CC(C(=O)c1cccc(F)c1)c1nc2ccccc2s1 (configuration not stated) [(2Z)-2-(3H-1,3-benzothiazol-2-ylidene)-3-(3-fluorophenyl)-3-keto-propionitrile]	5.13
Cc1cccc(NC(=S)NN=C2C(=O)N(CN3CCOCC3)c3ccccc32)c1C [(3Z)-1-(morpholin-4-ylmethyl)-1H-indole-2,3-dione 3-[N-(2,3-dimethylphenyl)thiosemicarbazone]]	5.22

Same assay, conditions: inactive by the depositor's call

SMILES	pEC50
Cc1ccc(S(=O)(=O)NCc2ccc(C(=O)N3CCN(Cc4ccccc4)CC3)cc2)cc1 [4-methyl-N-[[4-[4-(phenylmethyl)piperazin-1-yl]carbonylphenyl]methyl]benzenesulfonamide]	5.18
CC(C)c1ccc(NC(=O)c2cnn(-c3ccccc3)c2NC(=O)c2ccco2)cc1 [5-(2-furoylamino)-N-p-cumenyl-1-phenyl-pyrazole-4-carboxamide]	4.92
CC(C)CNC(=O)c1ccc(COc2ccc(Cl)cc2Cl)o1 [5-[(2,4-dichlorophenoxy)methyl]-N-(2-methylpropyl)-2-furancarboxamide]	4.98
CCc1ccc(-n2c(SCC(=O)c3ccc4c(c3)NC(=O)CO4)nc3ccccc3c2=O)cc1 [6-[2-[3-(4-ethylphenyl)-4-oxidanylidene-quinazolin-2-yl]sulfanylethanoyl]-4H-1,4-benzoxazin-3-one]	4.29
COc1cccc(C2c3c(oc4ccc(F)cc4c3=O)C(=O)N2CCCN2CCOCC2)c1 (configuration not stated) [7-fluoranyl-1-(3-methoxyphenyl)-2-(3-morpholin-4-ylpropyl)-1H-chromeno[2,3-c]pyrrole-3,9-dione]	4.16
